Activity calls are given as the source filed them. The calls are words filed in the database; no cut-off is given here.
Legend:
[1] = Inhibition of MTP assessed as inhibition of apoB secretion from canine hepatocytes; format: cell-based; settings: Canis lupus familiaris, Hepatocyte
[2] = target: Histamine H2 receptor (Homo sapiens) (UniProt P25021); assay: Inhibition of histamine H2 receptor at 1 uM
[3] = target: Adrenergic receptor alpha-1 (Homo sapiens) (UniProt P35348+P25100+P35368); assay: Inhibition of adrenergic a1 receptor at 1 uM; format: protein assay
[4] = Permeability from apical to basolateral side of the Caco-2 cell membrane at 1 uM; format: ADME, cell-based; settings: human
[5] = target: Adenosine receptor A3 (Homo sapiens) (UniProt P0DMS8); assay: Inhibition of adenosine A3 receptor at 1 uM
Chain of Adenosine receptor A3 (Homo sapiens) (P0DMS8 whole entry): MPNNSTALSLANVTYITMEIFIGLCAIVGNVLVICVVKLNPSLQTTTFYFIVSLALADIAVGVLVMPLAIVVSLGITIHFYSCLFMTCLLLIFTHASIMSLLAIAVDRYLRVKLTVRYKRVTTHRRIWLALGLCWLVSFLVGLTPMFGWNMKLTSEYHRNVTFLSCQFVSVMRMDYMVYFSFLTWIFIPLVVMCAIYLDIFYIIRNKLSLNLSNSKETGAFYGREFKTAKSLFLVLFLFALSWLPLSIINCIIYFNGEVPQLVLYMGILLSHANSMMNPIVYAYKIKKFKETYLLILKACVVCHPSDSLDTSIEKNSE

[6] = target: Adrenergic receptor alpha-2 (Homo sapiens) (UniProt P08913+P18825+P18089); assay: Inhibition of adrenergic a2 receptor at 1 uM; format: protein assay
[7] = target: Beta-1 adrenergic receptor (Homo sapiens) (UniProt P08588); assay: Inhibition of adrenergic b1 receptor at 1 uM
Chain of Beta-1 adrenergic receptor (Homo sapiens) (P08588 whole entry, looked up): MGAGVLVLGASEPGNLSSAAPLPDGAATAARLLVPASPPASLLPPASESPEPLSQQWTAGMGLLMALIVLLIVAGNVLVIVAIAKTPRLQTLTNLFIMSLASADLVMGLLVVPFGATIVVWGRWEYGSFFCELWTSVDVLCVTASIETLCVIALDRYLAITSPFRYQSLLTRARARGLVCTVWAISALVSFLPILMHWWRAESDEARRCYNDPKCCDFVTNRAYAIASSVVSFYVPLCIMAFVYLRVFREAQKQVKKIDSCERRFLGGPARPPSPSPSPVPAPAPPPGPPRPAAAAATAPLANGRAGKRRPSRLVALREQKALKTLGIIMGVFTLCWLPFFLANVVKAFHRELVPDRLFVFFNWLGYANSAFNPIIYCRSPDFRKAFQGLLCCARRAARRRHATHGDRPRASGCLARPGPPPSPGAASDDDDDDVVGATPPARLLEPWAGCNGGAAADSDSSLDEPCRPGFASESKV

[8] = target: Type-2 angiotensin II receptor (Homo sapiens) (UniProt P50052); assay: Inhibition of AT2 receptor at 1 uM
Chain of Type-2 angiotensin II receptor (Homo sapiens) (P50052 whole entry): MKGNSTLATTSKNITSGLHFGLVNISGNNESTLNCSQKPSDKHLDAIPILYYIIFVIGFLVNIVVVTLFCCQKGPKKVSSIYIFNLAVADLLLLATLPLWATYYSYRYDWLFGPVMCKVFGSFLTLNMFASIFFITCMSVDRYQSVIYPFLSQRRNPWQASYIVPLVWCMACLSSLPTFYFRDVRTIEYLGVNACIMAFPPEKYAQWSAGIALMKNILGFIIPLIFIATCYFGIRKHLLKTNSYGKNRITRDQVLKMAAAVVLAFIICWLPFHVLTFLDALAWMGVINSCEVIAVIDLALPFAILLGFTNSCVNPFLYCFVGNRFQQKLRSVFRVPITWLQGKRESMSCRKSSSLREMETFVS

Homo sapiens [9] = organism: Homo sapiens; assay: Inhibition of central benzodiazepine receptor at 1 uM
[10] = target: B1 bradykinin receptor (Homo sapiens) (UniProt P46663); assay: Inhibition of bradykinin B1 receptor at 1 uM
[11] = target: B2 bradykinin receptor (Homo sapiens) (UniProt P30411); assay: Inhibition of bradykinin B2 receptor at 1 uM
Chain of B2 bradykinin receptor (Homo sapiens) (P30411 whole entry): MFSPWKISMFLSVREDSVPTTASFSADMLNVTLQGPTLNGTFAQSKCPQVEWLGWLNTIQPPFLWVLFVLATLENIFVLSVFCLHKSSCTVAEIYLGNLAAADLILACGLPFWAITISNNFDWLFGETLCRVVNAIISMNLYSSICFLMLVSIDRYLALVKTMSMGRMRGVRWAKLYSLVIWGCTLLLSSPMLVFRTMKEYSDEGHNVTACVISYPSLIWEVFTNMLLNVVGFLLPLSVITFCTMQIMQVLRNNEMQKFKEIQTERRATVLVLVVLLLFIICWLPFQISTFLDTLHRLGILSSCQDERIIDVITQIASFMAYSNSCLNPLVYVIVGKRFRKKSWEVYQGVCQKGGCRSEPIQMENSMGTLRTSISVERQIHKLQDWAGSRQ

[12] = target: D(1A) dopamine receptor (Homo sapiens) (UniProt P21728); assay: Inhibition of dopamine D1 receptor at 1 uM
Chain of D(1A) dopamine receptor (Homo sapiens) (P21728 whole entry): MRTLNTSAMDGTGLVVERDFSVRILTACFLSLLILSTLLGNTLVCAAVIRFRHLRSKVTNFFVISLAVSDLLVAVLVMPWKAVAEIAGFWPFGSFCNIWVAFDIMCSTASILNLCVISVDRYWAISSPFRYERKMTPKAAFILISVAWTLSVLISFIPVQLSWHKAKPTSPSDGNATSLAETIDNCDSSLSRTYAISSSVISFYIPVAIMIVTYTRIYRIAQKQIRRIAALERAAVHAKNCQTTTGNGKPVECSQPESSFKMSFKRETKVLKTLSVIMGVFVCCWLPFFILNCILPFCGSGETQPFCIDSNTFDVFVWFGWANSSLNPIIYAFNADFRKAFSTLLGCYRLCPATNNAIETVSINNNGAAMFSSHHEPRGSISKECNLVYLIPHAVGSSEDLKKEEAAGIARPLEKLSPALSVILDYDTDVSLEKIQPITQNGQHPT

[13] = target: D(3) dopamine receptor (Homo sapiens) (UniProt P35462); assay: Inhibition of dopamine D3 receptor at 1 uM
Chain of D(3) dopamine receptor (Homo sapiens) (P35462 whole entry): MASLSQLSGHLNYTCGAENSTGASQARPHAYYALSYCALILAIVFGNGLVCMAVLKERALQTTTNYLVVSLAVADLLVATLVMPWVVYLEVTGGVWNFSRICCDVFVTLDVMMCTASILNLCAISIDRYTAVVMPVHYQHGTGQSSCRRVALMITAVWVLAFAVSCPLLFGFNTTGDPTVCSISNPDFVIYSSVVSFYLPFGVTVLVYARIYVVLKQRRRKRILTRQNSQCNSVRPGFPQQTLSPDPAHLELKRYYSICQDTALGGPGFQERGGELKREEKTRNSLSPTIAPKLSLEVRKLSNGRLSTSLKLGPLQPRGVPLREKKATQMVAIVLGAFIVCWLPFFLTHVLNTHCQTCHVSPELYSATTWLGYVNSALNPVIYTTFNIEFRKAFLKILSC

[14] = target: 5-hydroxytryptamine receptor 2A (Homo sapiens) (UniProt P28223); assay: Inhibition of 5HT2A receptor at 1 uM
[15] = target: 5-hydroxytryptamine receptor 2C (Homo sapiens) (UniProt P28335); assay: Inhibition of 5HT2C receptor at 1 uM
Chain of 5-hydroxytryptamine receptor 2C (Homo sapiens) (P28335 whole entry): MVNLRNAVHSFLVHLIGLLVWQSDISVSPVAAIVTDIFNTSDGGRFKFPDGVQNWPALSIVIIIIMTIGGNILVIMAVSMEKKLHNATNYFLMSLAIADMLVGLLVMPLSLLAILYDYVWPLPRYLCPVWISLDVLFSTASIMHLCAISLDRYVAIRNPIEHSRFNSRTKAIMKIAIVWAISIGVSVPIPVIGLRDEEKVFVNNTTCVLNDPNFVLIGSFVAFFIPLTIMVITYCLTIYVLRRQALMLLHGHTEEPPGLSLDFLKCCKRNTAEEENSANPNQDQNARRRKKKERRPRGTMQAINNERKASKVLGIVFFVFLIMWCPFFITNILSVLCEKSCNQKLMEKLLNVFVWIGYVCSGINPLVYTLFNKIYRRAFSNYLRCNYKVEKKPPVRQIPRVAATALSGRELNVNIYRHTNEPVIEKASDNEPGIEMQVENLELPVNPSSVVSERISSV

[16] = target: Muscarinic acetylcholine receptor M3 (Homo sapiens) (UniProt P20309); assay: Inhibition of muscarinic M3 receptor at 1 uM
Chain of Muscarinic acetylcholine receptor M3 (Homo sapiens) (P20309 whole entry, looked up): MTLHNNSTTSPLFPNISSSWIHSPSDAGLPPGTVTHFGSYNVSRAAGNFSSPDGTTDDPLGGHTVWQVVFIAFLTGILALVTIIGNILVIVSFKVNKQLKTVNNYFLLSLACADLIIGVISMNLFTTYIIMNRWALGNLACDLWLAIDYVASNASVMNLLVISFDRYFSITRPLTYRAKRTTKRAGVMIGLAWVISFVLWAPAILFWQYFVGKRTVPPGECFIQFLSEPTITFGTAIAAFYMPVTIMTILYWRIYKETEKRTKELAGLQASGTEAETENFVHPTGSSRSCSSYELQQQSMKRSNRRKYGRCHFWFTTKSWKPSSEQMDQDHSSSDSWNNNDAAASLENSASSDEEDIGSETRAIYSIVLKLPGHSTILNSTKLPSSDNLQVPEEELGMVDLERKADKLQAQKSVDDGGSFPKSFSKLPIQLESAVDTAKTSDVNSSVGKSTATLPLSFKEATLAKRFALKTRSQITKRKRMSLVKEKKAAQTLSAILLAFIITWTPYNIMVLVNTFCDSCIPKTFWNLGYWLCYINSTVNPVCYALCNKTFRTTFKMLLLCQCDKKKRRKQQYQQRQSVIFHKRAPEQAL

[17] = target: Muscarinic acetylcholine receptor M4 (Homo sapiens) (UniProt P08173); assay: Inhibition of muscarinic M4 receptor at 1 uM
[18] = target: Delta-type opioid receptor (Homo sapiens) (UniProt P41143); assay: Inhibition of delta opioid receptor at 1 uM
[19] = target: Glucocorticoid receptor (Homo sapiens) (UniProt P04150); assay: Inhibition of glucocorticoid receptor at 1 uM
Chain of Glucocorticoid receptor (Homo sapiens) (P04150 whole entry): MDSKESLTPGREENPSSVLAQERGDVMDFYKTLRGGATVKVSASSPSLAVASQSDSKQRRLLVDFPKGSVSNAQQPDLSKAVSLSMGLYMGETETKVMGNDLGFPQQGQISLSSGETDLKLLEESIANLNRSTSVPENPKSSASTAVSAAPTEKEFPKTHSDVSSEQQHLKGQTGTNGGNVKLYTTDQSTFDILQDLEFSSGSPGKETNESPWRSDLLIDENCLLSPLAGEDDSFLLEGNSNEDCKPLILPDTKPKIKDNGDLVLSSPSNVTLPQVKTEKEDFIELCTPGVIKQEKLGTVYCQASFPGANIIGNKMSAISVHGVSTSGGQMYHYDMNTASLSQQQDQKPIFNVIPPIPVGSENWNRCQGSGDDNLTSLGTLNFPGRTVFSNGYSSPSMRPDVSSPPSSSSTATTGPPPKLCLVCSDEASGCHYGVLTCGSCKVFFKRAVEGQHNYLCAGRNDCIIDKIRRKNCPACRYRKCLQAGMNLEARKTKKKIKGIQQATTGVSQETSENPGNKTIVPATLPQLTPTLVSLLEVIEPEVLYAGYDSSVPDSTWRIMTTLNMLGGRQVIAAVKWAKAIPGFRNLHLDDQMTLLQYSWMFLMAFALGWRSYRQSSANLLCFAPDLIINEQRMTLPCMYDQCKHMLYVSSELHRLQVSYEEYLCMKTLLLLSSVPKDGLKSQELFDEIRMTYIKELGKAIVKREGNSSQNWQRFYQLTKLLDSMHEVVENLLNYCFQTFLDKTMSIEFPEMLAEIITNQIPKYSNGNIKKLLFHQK

Homo sapiens [20] = organism: Homo sapiens; assay: Inhibition of tachykinin receptor at 1 uM
[21] = target: Voltage-gated L-type calcium channel (Homo sapiens, UniProt Q13936+Q13698+Q01668+O60840); assay: Inhibition of L-type calcium channel at 1 uM
Homo sapiens [22] = organism: Homo sapiens; assay: Inhibition of IKr potassium channel at 1 uM
[23] = Metabolic stability in human liver microsome at 0.5 uM; format: ADME; settings: liver microsomes
CYP3A4 = assay: Metabolic stability in human liver microsome at 0.5 uM in presence of 1 uM CYP3A4 inhibitor ketoconazole; format: ADME; settings: liver microsomes, with 1 uM ketoconazole (CYP3A4 inhibitor)
CYP2D6 = assay: Metabolic stability in human liver microsome at 0.5 uM in presence of 5 uM CYP2D6 inhibitor quinidine; format: ADME; settings: liver microsomes, with 5 uM quinidine (CYP2D6 inhibitor)
CYP1A2 = assay: Metabolic stability in human liver microsome at 0.5 uM in presence of 5 uM CYP1A2 inhibitor furafylline; format: ADME; settings: liver microsomes, with 5 uM furafylline (CYP1A2 inhibitor)
Plasma = assay: Percentage unbound ligand in human blood at 0.2 uM; format: ADME, cell-free
[24] = Ratio of drug level in blood to plasma in human; format: ADME, cell-free; settings: blood and plasma, read-out: BPR
Mus musculus = organism: Mus musculus; assay: Inhibition of intestinal MTP in mouse assessed as inhibition of intestinal fat absorption; format: functional
[25] = Plasma clearance in rat at 0.3 mg/kg, iv; format: ADME, organism-based; set-up: dose 0.3 mg/kg, route intravenous
[26] = Plasma clearance in rat at 5 mg/kg, iv; format: ADME, organism-based; set-up: dose 5 mg/kg, route intravenous
[27] = Plasma clearance in Beagle dog at 1 mg/kg, iv; format: ADME, organism-based, Canis lupus familiaris; set-up: dose 1 mg/kg, route intravenous
[28] = Plasma clearance in portal cannulated Beagle dog at 1 mg/kg, iv; format: ADME, organism-based, Canis lupus familiaris; set-up: dose 1 mg/kg, route intravenous
[29] = Plasma clearance in monkey at 0.5 mg/kg, iv; format: ADME, organism-based, Macaca mulatta; set-up: dose 0.5 mg/kg, route intravenous; settings: rhesus monkey
[30] = Volume of distribution at steady state in Beagle dog at 0.5 mg/kg, iv; format: ADME, organism-based, Canis lupus familiaris; set-up: dose 0.5 mg/kg, route intravenous; settings: in vivo, read-out: Vdss
[31] = Half life in rat at 0.3 mg/kg, iv; format: ADME, organism-based; set-up: dose 0.3 mg/kg, route intravenous; settings: in vivo
[32] = Half life in rat at 1 mg/kg, iv; format: ADME, organism-based; set-up: dose 1 mg/kg, route intravenous; settings: in vivo
[33] = Half life in Beagle dog at 0.5 mg/kg, iv; format: ADME, organism-based, Canis lupus familiaris; set-up: dose 0.5 mg/kg, route intravenous; settings: in vivo
[34] = Half life in portal cannulated Beagle dog at 1 mg/kg, iv; format: ADME, organism-based, Canis lupus familiaris; set-up: dose 1 mg/kg, route intravenous; settings: in vivo
[35] = Half life in monkey at 0.5 mg/kg, iv; format: ADME, organism-based, Macaca mulatta; set-up: dose 0.5 mg/kg, route intravenous; settings: rhesus monkey, in vivo
[36] = AUC (0 to t) in rat at 0.3 mg/kg, iv; format: ADME, organism-based; set-up: dose 0.3 mg/kg, route intravenous; settings: plasma
[37] = AUC (0 to t) in rat at 5 mg/kg, iv; format: ADME, organism-based; set-up: dose 5 mg/kg, route intravenous; settings: plasma
[38] = AUC (0 to infinity) in rat at 1 mg/kg, iv; format: ADME, organism-based; set-up: time infinity, dose 1 mg/kg, route intravenous; settings: plasma
[39] = AUC (0 to infinity) in Beagle dog at 0.5 mg/kg, iv; format: ADME, organism-based, Canis lupus familiaris; set-up: time infinity, dose 0.5 mg/kg, route intravenous; settings: plasma
[40] = AUC (0 to infinity) in Beagle dog at 1 mg/kg, iv; format: ADME, organism-based, Canis lupus familiaris; set-up: time infinity, dose 1 mg/kg, route intravenous; settings: plasma
[41] = Half life in Beagle dog at 5 mg/kg, po; format: ADME, organism-based, Canis lupus familiaris; set-up: dose 5 mg/kg, route oral; settings: in vivo
[42] = AUC (0 to infinity) in rat at 3 mg/kg, po; format: ADME, organism-based; set-up: time infinity, dose 3 mg/kg, route oral; settings: plasma
[43] = AUC (0 to infinity) in portal cannulated Beagle dog at 1 mg/kg, po; format: ADME, organism-based, Canis lupus familiaris; set-up: time infinity, dose 1 mg/kg, route oral; settings: plasma
[44] = Tmax in rat at 300 mg/kg, po; format: ADME, organism-based; set-up: dose 300 mg/kg, route oral; settings: in vivo
[45] = Tmax in Beagle dog at 0.5 mg/kg, po; format: ADME, organism-based, Canis lupus familiaris; set-up: dose 0.5 mg/kg, route oral; settings: in vivo
[46] = Tmax in Beagle dog at 5 mg/kg, po; format: ADME, organism-based, Canis lupus familiaris; set-up: dose 5 mg/kg, route oral; settings: in vivo
[47] = Bioavailability in Beagle dog at 5 mg/kg, po; format: ADME, organism-based, Canis lupus familiaris; settings: in vivo
Canis familiaris [48] = assay: Effect on body weight in obese Beagle dog assessed as weight loss at 0.39 mg/kg, po after 3 months relative to control; format: functional, Canis lupus familiaris
Canis familiaris [49] = assay: Decrease in food intake in obese Beagle dog at 0.39 mg/kg, po after 3 months; format: functional, Canis lupus familiaris; set-up: scale not given: the % may be the effect or the level left
[50] = Permeability from apical to basolateral side of the Caco-2 cell membrane at 10 uM in presence of calcium; format: ADME, cell-based; settings: human
Cytochrome P450 1A2 = Cytochrome P450 1A2 (Homo sapiens, UniProt P05177); assay: Inhibition of CYP1A2; format: ADME
Cytochrome P450 2C19 = Cytochrome P450 2C19 (Homo sapiens, UniProt P33261); assay: Inhibition of CYP2C19; format: ADME
Chain of Cytochrome P450 2C19 (P33261 whole entry): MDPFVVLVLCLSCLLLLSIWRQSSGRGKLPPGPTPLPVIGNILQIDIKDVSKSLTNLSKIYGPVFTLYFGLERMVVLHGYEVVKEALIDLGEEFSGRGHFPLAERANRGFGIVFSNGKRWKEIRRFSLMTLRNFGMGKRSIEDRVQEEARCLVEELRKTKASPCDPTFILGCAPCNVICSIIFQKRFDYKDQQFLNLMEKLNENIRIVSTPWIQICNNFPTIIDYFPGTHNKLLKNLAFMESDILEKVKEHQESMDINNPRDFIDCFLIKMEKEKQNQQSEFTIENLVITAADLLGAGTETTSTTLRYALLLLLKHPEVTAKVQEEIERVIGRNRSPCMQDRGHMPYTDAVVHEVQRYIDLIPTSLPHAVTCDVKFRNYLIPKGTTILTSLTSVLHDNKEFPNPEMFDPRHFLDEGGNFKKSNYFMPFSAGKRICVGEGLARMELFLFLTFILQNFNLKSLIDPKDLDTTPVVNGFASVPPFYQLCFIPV

Cytochrome P450 2D6 = Cytochrome P450 2D6 (Homo sapiens, UniProt P10635); assay: Inhibition of CYP2D6; format: ADME

SMILES: CN(Cc1ccccc1)C(=O)[C@@H](NC(=O)c1cc2cc(NC(=O)c3ccccc3-c3ccc(C(F)(F)F)cc3)ccc2n1C)c1ccccc1 [DIRLOTAPIDE]
- IC50 [1]: 0.0015 µM
- Activity [2]: inactive
- Activity [3]: inactive
- Papp A→B at 1 µM [4]: 0.9 ×10⁻⁶ cm/s
- Activity [5]: inactive
- Activity [6]: inactive
- Activity [7]: inactive
- Activity [8]: inactive
- Activity (Homo sapiens [9]): inactive
- Activity [10]: inactive
- Activity [11]: inactive
- Activity [12]: inactive
- Activity [13]: inactive
- Activity [14]: inactive
- Activity [15]: inactive
- Activity [16]: inactive
- Activity [17]: inactive
- Activity [18]: inactive
- Activity [19]: inactive
- Activity (Homo sapiens [20]): inactive
- Activity [21]: Not Active
- Activity (Homo sapiens [22]): inactive
- half-life at 0.5 µM [23]: 0.8 h
- half-life at 0.5 µM (CYP3A4): 6.15 h
- half-life at 0.5 µM (CYP2D6): 0.6 h
- half-life at 0.5 µM (CYP1A2): 0.75 h
- Fu (Plasma): 0.0097%
- blood plasma ratio [24]: 0.61
- ED25 (Mus musculus): 0.16 mg/kg
- clearance [25]: 92 mL/min/kg
- clearance [26]: 14 mL/min/kg
- clearance [27]: 4.7 mL/min/kg
- clearance [28]: 7.6 mL/min/kg
- clearance [29]: 12 mL/min/kg
- Vd [30]: 1 L/kg
- half-life [31]: 2 h
- half-life [32]: 5.8 h
- half-life [33]: 5 h
- half-life [34]: 7.8 h
- half-life [35]: 6.7 h
- AUC(0-t) [36]: 51 ng·h/mL
- AUC(0-t) [37]: 5610 ng·h/mL
- AUC(0-inf) [38]: 530 ng·h/mL
- AUC(0-inf) [39]: 1550 ng·h/mL
- AUC(0-inf) [40]: 3610 ng·h/mL
- half-life [41]: 5.9 h
- AUC(0-inf) [42]: 40.7 ng·h/mL
- AUC(0-inf) [43]: 289 ng·h/mL
- Tmax [44]: 6 h
- Tmax [45]: 3 h
- Tmax [46]: 3 h
- bioavailability [47]: 12%
- Activity (Canis familiaris [48]): 18.8%
- Activity (Canis familiaris [49]): 54%
- Papp A→B at 10 µM [50]: 0.4 ×10⁻⁶ cm/s
- IC50 (Cytochrome P450 1A2): > 30 µM
- IC50 (Cytochrome P450 2C19): > 30 µM
- IC50 (Cytochrome P450 2D6): > 30 µM

— ChEMBL document CHEMBL1148857, “In vitro and in vivo profile of 5-[(4'-trifluoromethyl-biphenyl-2-carbonyl)-amino]-1H-indole-2-carboxylic acid benzylmethyl carbamoylamide (dirlotapide), a novel potent MTP inhibitor for obesity” (Bioorg Med Chem Lett, 2007)
